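These data come from cells grown in 96-well plates and exposed to compound for 48 hours at five concentrations. Definition used: TGI = concentration required for complete inhibition of growth.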
Legend:
Assay in all cases: NCI tumour cell line growth inhibition, 48 h
786-0 renal = tested on: 786-0 renal
A498 renal = tested on: A498 renal
ACHN renal = tested on: ACHN renal
BT-549 breast = tested on: BT-549 breast
CAKI-1 renal = tested on: CAKI-1 renal
COLO 205 colon = tested on: COLO 205 colon
DU-145 prostate = tested on: DU-145 prostate
EKVX NSCLC = tested on: EKVX NSCLC
HCT-116 colon = tested on: HCT-116 colon
HCT-15 colon = tested on: HCT-15 colon
HOP-62 NSCLC = tested on: HOP-62 NSCLC
HS 578T breast = tested on: HS 578T breast
K-562 leukemia = tested on: K-562 leukemia
MALME-3M melanoma = tested on: MALME-3M melanoma
MDA-MB-231 breast = tested on: MDA-MB-231 breast
MDA-N = tested on: MDA-N
NCI-H226 lung = tested on: NCI-H226 lung
NCI/ADR-RES ovarian = tested on: NCI/ADR-RES ovarian
OVCAR-3 ovarian = tested on: OVCAR-3 ovarian
OVCAR-4 ovarian = tested on: OVCAR-4 ovarian
OVCAR-5 ovarian = tested on: OVCAR-5 ovarian
OVCAR-8 ovarian = tested on: OVCAR-8 ovarian
PC-3 prostate = tested on: PC-3 prostate
SF-295 CNS = tested on: SF-295 CNS
SK-MEL-28 melanoma = tested on: SK-MEL-28 melanoma
SK-OV-3 ovarian = tested on: SK-OV-3 ovarian
SN12C renal = tested on: SN12C renal
SNB-75 CNS = tested on: SNB-75 CNS
TK-10 renal = tested on: TK-10 renal
UACC-257 melanoma = tested on: UACC-257 melanoma
UO-31 renal = tested on: UO-31 renal
A549 NSCLC = tested on: A549 NSCLC
CCRF-CEM leukemia = tested on: CCRF-CEM leukemia
HL-60(TB) leukemia = tested on: HL-60(TB) leukemia
HOP-92 NSCLC = tested on: HOP-92 NSCLC
HT29 colon = tested on: HT29 colon
IGROV1 ovarian = tested on: IGROV1 ovarian
KM12 colon = tested on: KM12 colon
LOX IMVI melanoma = tested on: LOX IMVI melanoma
M14 melanoma = tested on: M14 melanoma
MCF7 breast = tested on: MCF7 breast
MDA-MB-435 = tested on: MDA-MB-435
MOLT-4 leukemia = tested on: MOLT-4 leukemia
NCI-H23 lung = tested on: NCI-H23 lung
NCI-H460 lung = tested on: NCI-H460 lung
NCI-H522 lung = tested on: NCI-H522 lung
RPMI-8226 leukemia = tested on: RPMI-8226 leukemia
SF-268 CNS = tested on: SF-268 CNS
SK-MEL-2 melanoma = tested on: SK-MEL-2 melanoma
SK-MEL-5 melanoma = tested on: SK-MEL-5 melanoma
SNB-19 CNS = tested on: SNB-19 CNS
SR leukemia = tested on: SR leukemia
SW-620 colon = tested on: SW-620 colon
U251 CNS = tested on: U251 CNS
UACC-62 melanoma = tested on: UACC-62 melanoma

Which TGI (786-0 renal) does the source give for `NCC(O)CNCC/C=C\C/C=C\C/C=C\C/C=C\C/C=C\C/C=C\CCCCC/C=C\CCNCC(O)CN` (centres undefined) here?
The TGI was 3.07 µM.

And the TGI (A498 renal)?
The TGI was 3.34 µM.

And the TGI (ACHN renal)?
The TGI was 3.35 µM.

What about the TGI (BT-549 breast) of the same compound?
The TGI was 7.47 µM.

And the TGI (CAKI-1 renal)?
Its TGI is 3.63 µM.

And the TGI (COLO 205 colon)?
The TGI was 3.41 µM.

What about the TGI (DU-145 prostate) of the same compound?
The TGI was 3.26 µM.

And the TGI (EKVX NSCLC)?
Its TGI is 2.15 µM.

And the TGI (HCT-116 colon)?
Its TGI is 3.18 µM.

What about the TGI (HCT-15 colon) of the same compound?
The TGI was 3.03 µM.

And the TGI (HOP-62 NSCLC)?
The TGI was 3.53 µM.

What about the TGI (HS 578T breast) of the same compound?
The TGI was 2.74 µM.

And the TGI (K-562 leukemia)?
The TGI was > 100 µM.

What about the TGI (MALME-3M melanoma) of the same compound?
The TGI was 4.34 µM.

What about the TGI (MDA-MB-231 breast) of the same compound?
Its TGI is 3.18 µM.

What about the TGI (MDA-N) of the same compound?
Its TGI is 3.09 µM.

What about the TGI (NCI-H226 lung) of the same compound?
The TGI was 13.4 µM.

And the TGI (NCI/ADR-RES ovarian)?
Its TGI is 2.82 µM.

What about the TGI (OVCAR-3 ovarian) of the same compound?
Its TGI is 3.42 µM.

What about the TGI (OVCAR-4 ovarian) of the same compound?
Its TGI is 3.61 µM.

What about the TGI (OVCAR-5 ovarian) of the same compound?
The TGI was 3.41 µM.

And the TGI (OVCAR-8 ovarian)?
The TGI was 3.21 µM.

And the TGI (PC-3 prostate)?
The TGI was 3.49 µM.

And the TGI (SF-295 CNS)?
The TGI was 4.29 µM.

What about the TGI (SK-MEL-28 melanoma) of the same compound?
The TGI was 14 µM.

And the TGI (SK-OV-3 ovarian)?
The TGI was 5.59 µM.

And the TGI (SN12C renal)?
The TGI was 3.03 µM.

What about the TGI (SNB-75 CNS) of the same compound?
The TGI was 3.2 µM.

And the TGI (TK-10 renal)?
Its TGI is 2.96 µM.

What about the TGI (UACC-257 melanoma) of the same compound?
The TGI was 4.43 µM.

What about the TGI (UO-31 renal) of the same compound?
Its TGI is 3.72 µM.

For `CC(=O)Oc1c(C)cc(-c2cc(C)c(OC(C)=O)c(C)c2)cc1C`, which TGI (786-0 renal) is on record?
Its TGI is > 100 µM.

What about the TGI (A549 NSCLC) of the same compound?
Its TGI is > 100 µM.

What about the TGI (ACHN renal) of the same compound?
Its TGI is > 100 µM.

What about the TGI (BT-549 breast) of the same compound?
Its TGI is > 100 µM.

What about the TGI (CAKI-1 renal) of the same compound?
Its TGI is > 100 µM.

What about the TGI (CCRF-CEM leukemia) of the same compound?
Its TGI is > 100 µM.

And the TGI (COLO 205 colon)?
The TGI was > 100 µM.

And the TGI (DU-145 prostate)?
The TGI was > 100 µM.

What about the TGI (EKVX NSCLC) of the same compound?
The TGI was > 100 µM.

What about the TGI (HCT-116 colon) of the same compound?
The TGI was > 100 µM.

What about the TGI (HCT-15 colon) of the same compound?
Its TGI is > 100 µM.

And the TGI (HL-60(TB) leukemia)?
The TGI was > 100 µM.

What about the TGI (HOP-62 NSCLC) of the same compound?
Its TGI is > 100 µM.

And the TGI (HOP-92 NSCLC)?
The TGI was > 100 µM.

And the TGI (HS 578T breast)?
Its TGI is 60.1 µM.

And the TGI (HT29 colon)?
Its TGI is > 100 µM.

What about the TGI (IGROV1 ovarian) of the same compound?
The TGI was > 100 µM.

What about the TGI (K-562 leukemia) of the same compound?
The TGI was > 100 µM.

What about the TGI (KM12 colon) of the same compound?
Its TGI is > 100 µM.

What about the TGI (LOX IMVI melanoma) of the same compound?
The TGI was > 100 µM.

What about the TGI (M14 melanoma) of the same compound?
The TGI was > 100 µM.

What about the TGI (MALME-3M melanoma) of the same compound?
The TGI was > 100 µM.

What about the TGI (MCF7 breast) of the same compound?
The TGI was > 100 µM.

And the TGI (MDA-MB-435)?
The TGI was 10.8 µM.

And the TGI (MDA-N)?
Its TGI is 25.6 µM.

And the TGI (MOLT-4 leukemia)?
The TGI was > 100 µM.

And the TGI (NCI-H226 lung)?
The TGI was 94.4 µM.

And the TGI (NCI-H23 lung)?
Its TGI is 42.8 µM.

What about the TGI (NCI-H460 lung) of the same compound?
Its TGI is > 100 µM.

And the TGI (NCI-H522 lung)?
Its TGI is 98.2 µM.

What about the TGI (NCI/ADR-RES ovarian) of the same compound?
The TGI was > 100 µM.

What about the TGI (OVCAR-3 ovarian) of the same compound?
Its TGI is > 100 µM.

What about the TGI (OVCAR-4 ovarian) of the same compound?
Its TGI is > 100 µM.

And the TGI (OVCAR-5 ovarian)?
Its TGI is > 100 µM.

And the TGI (OVCAR-8 ovarian)?
The TGI was > 100 µM.

What about the TGI (PC-3 prostate) of the same compound?
The TGI was > 100 µM.

What about the TGI (RPMI-8226 leukemia) of the same compound?
Its TGI is > 100 µM.

And the TGI (SF-268 CNS)?
The TGI was > 100 µM.

And the TGI (SF-295 CNS)?
Its TGI is 93.8 µM.

What about the TGI (SK-MEL-2 melanoma) of the same compound?
Its TGI is > 100 µM.

What about the TGI (SK-MEL-28 melanoma) of the same compound?
The TGI was > 100 µM.

What about the TGI (SK-MEL-5 melanoma) of the same compound?
Its TGI is > 100 µM.

What about the TGI (SK-OV-3 ovarian) of the same compound?
The TGI was 38.4 µM.

What about the TGI (SN12C renal) of the same compound?
Its TGI is > 100 µM.

And the TGI (SNB-19 CNS)?
The TGI was > 100 µM.

And the TGI (SNB-75 CNS)?
Its TGI is 60.9 µM.

And the TGI (SR leukemia)?
The TGI was > 100 µM.

What about the TGI (SW-620 colon) of the same compound?
The TGI was > 100 µM.

And the TGI (TK-10 renal)?
Its TGI is 91.6 µM.

What about the TGI (U251 CNS) of the same compound?
The TGI was 39.5 µM.

What about the TGI (UACC-257 melanoma) of the same compound?
Its TGI is > 100 µM.

What about the TGI (UACC-62 melanoma) of the same compound?
Its TGI is > 100 µM.

What about the TGI (UO-31 renal) of the same compound?
The TGI was 84.6 µM.

From PubChem BioAssay (NCI)
